Literature values in patent US8217079B2 (priority 2010, dated 2012).

Test system: PVR-1 gene expression
Conditions: sub-micromolar concentrations; peripheral blood of JAK2^V617F PV patients; cited from earlier work

CCN(CC)Cc1ccc2cc(COC(=O)Nc3ccc(C(=O)NO)cc3)ccc2c1.Cl [ITF2357, Diethyl-[6-(4-hydroxycarbamoyl-phenylcarbamoyloxymethyl)-naphthalen-2-ylmethyl]-ammonium chloride]
PVR-1 gene expression in granulocytes: down-modulate
